Experimental data reported in US6432969B1, “N-(substituted glycyl)-2 cyanopyrrolidines, pharmaceutical compositions containing them and their use in inhibiting dipeptidyl peptidase-IV” (Novartis AG, priority 2000, dated 2002).
Blank lines part the entries; values can stand above or below the compound they belong to.

How the values were obtained:
[1] = molecular target: T1, DPP-IV activity in human plasma (Homo sapiens, UniProt P27487); assay: Human plasma DPP-IV assay; type: biochemical; settings: substrate H-Gly-Pro-AMC
T1 construct: from tissue; host or cells: human plasma
T1 sequence (P27487 39-766 limits assumed): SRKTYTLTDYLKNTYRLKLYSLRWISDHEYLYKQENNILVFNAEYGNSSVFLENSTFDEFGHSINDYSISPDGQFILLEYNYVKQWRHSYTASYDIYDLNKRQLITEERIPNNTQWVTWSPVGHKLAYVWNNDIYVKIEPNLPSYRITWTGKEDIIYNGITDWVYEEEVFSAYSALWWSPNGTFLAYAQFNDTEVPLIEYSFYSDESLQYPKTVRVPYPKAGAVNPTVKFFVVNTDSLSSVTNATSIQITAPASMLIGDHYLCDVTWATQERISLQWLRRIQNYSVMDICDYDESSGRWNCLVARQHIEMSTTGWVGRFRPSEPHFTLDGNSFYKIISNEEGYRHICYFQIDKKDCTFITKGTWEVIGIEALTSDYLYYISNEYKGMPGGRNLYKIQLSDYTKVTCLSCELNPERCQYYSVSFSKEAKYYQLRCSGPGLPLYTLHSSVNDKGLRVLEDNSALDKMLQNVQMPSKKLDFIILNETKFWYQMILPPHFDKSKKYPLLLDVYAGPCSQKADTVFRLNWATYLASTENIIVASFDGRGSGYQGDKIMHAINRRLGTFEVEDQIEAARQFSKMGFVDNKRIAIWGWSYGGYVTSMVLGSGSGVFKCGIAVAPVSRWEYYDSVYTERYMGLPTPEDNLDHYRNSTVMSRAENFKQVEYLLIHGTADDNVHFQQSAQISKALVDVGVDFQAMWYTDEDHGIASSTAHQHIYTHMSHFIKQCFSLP
Description: (§1) Briefly, 5 μl of plasma are added to 96-well flat-bottom micortiter plates (Falcon), followed by the addition of 5 μl of 80 mM MgCl2 in incubation buffer (25 mMHEPES, 140 mM NaCl, 1% RIA-grade BSA, pH 7.8). After a 60 min. incubation at room temperature, the reaction is initiated by the addition of 10 μl of incubation buffer containing 0.1 mM substrate (H-Glycine-Proline-AMC; AMC is 7-amino 4-methylcoumarin). The plates are covered with aluminum foil (or kept in the dark) and incubated at room temperature for 20 min. […] A fluorescence-concentration curve of free AMC is generated using 0-50 μM solutions of AMC in assay buffer. The curve generated is linear and is used for interpolation of substrate consumption (catalytic activity in nmoles substrate cleaved/min). As with the previous assay, the potency of the test compounds as DPP-IV inhibitors, expressed as IC50, is calculated from 8-point, dose-response curves using a 4 parameter logistic function.

[2] = molecular target: T2, DPP-IV activity in rat plasma (Rattus norvegicus, UniProt P14740); assay: Rat plasma DPP-IV assay; type: biochemical; settings: substrate H-Gly-Pro-AMC
T2 construct: from tissue; host or cells: rat plasma
T2 sequence (P14740 38-767 limits assumed): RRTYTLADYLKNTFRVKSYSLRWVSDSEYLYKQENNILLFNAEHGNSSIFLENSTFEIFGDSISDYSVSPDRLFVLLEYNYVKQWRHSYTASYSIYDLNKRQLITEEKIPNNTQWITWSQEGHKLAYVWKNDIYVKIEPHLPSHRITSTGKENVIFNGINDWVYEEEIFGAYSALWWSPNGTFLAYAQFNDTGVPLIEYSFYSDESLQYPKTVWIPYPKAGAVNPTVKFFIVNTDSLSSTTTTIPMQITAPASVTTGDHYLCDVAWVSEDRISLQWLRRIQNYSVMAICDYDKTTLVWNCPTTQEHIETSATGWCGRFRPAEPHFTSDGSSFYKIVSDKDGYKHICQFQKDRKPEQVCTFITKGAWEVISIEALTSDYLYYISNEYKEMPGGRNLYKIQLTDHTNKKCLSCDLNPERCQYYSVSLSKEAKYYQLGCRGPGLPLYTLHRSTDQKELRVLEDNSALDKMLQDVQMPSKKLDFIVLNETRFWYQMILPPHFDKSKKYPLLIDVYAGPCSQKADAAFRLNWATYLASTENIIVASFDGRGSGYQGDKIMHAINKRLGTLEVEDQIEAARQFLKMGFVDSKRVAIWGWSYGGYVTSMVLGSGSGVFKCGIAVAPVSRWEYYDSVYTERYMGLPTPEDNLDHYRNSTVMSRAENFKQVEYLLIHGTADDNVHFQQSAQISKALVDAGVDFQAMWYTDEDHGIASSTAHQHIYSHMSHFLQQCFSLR
Description: as §1

[3] = molecular target: T3, DPP-IV activity from human colonic carcinoma cell (Caco-2) extracts (Homo sapiens, UniProt P27487); assay: Caco-2 DPP-IV Assay; type: biochemical; settings: Caco-2 cell extract, substrate H-Ala-Pro-pNA, 8-point dose-response
T3 construct: Cell extract is prepared from cells solubilized in 10 mM Tris HCl; host or cells: Caco-2, differentiated to induce DPP-IV expression
T3 sequence (P27487 whole entry): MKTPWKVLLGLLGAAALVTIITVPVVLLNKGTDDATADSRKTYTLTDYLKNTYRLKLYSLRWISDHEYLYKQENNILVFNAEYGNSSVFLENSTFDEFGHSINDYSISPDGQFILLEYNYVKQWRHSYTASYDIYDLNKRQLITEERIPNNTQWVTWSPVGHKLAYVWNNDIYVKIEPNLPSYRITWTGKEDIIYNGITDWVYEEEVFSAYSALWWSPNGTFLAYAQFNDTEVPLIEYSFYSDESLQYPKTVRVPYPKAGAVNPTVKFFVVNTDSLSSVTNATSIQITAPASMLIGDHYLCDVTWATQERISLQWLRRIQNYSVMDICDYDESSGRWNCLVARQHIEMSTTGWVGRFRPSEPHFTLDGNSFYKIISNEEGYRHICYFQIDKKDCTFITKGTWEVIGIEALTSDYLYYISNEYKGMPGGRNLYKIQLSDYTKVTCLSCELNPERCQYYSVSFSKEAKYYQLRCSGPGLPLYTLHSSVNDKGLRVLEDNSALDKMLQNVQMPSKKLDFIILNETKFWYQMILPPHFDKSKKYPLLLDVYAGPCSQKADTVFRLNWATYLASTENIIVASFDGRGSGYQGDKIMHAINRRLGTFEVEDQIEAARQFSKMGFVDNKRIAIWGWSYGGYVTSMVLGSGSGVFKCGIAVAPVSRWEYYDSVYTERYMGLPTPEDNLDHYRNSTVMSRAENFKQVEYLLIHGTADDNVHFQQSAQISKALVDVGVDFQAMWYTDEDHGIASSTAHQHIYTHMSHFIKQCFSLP
Description: The human colonic carcinoma cell line Caco-2 was obtained from the American Type Culture Collection (ATCC HTB 37). Differentiation of the cells to induce DPP-IV expression was accomplished as described by Reisher, et al. in an article entitled “Increased expression of intestinal cell line Caco-2” in Proc. Natl. Acad. Sci., Vol. 90, pgs. […] Cell extract is prepared from cells solubilized in 10 mM Tris HCl, 0.15 M NaCl, 0.04 t.i.u.aprotinin, 0.5% nonidet-P40, pH 8.0, which is centrifuged at 35,000 g for 30 min. at 4° C. to remove cell debris. The assay is conducted by adding 20 μg solubilized Caco-2 protein, diluted to a final volume of 125 μl in assay buffer (25 mM Tris HCl pH 7.4, 140 mM NaCl, 10 mM KCl, 1% bovine serum albumin) to microtiter plate wells. After a 60 min. incubation at room temperature, the reaction is initiated by adding 25 μl of 1 mM substrate (H-Alanine-Proline-pNA; pNA is p-nitroaniline). […] A standard curve of free p-nitroaniline is generated using 0-500 μM solutions of free pNA in assay buffer. The curve generated is linear and is used for interpolation of substrate consumption (catalytic activity in nmoles substrate cleaved/min).
The potency of the test compounds as DPP-IV inhibitors, expressed as IC50, is calculated from 8-point, dose-response curves using a 4-parameter logistic function.

Compound: N#C[C@@H]1CCCN1C(=O)CN[C@H]1CC[C@H](NC(=O)c2ccc(Cl)cc2)CC1 [Ex. 2T, 1-[[[4-[(4-chlorobenzoyl)amino]cyclohexyl]amino]acetyl]-2-cyano-, (S)-pyrrolidine]
IC50 [1]: 26 nM | IC50 [2]: 37 nM | IC50 [3]: 31 nM

Compound: N#C[C@@H]1CCCN1C(=O)CNC1CCN(C(=O)Nc2ccc(Cl)cc2)CC1 [Ex. 2II, 1-[[[1-[[(4-chlorophenyl)amino]carbonyl]-4-piperidinyl]amino]acetyl]-2-cyano-(S)-pyrrolidine]
IC50 [1]: 37 nM | IC50 [2]: 12 nM | IC50 [3]: 44 nM

Compound: N#C[C@@H]1CCCN1C(=O)CN[C@H]1CC[C@H](Oc2cccc(Cl)c2)CC1 [Ex. 2HH]
IC50 [1]: 18 nM | IC50 [2]: 10 nM | IC50 [3]: 18 nM

Compound: N#C[C@@H]1CCCN1C(=O)CNC1CCN(c2nc(-c3ccc(Cl)cc3)cs2)CC1 [Ex. 2LL]
IC50 [1]: 649 nM | IC50 [2]: 123 nM | IC50 [3]: 61 nM

Compound: N#C[C@@H]1CCCN1C(=O)CN[C@H]1CC[C@H](NS(=O)(=O)c2ccc(Cl)cc2)CC1 [Ex. 2Q, 1-[[[[4-[(4-chlorophenyl)sulfonyl]amino]cyclohexyl]amino]acetyl]-2-cyano-(S)-pyrrolidine]
IC50 [1]: 38 nM | IC50 [2]: 38 nM | IC50 [3]: 30 nM

Compound: N#C[C@@H]1CCCN1C(=O)CNC1CCN(S(=O)(=O)c2ccccc2)CC1 [Ex. 4D, 1-[[(1-phenylsulfonyl-4-piperidinyl)amino]acetyl]-2-cyano-(S)-pyrrolidine]
IC50 [1]: 104 nM | IC50 [2]: 59 nM | IC50 [3]: 114 nM

Compound: N#C[C@@H]1CCCN1C(=O)CN[C@H]1CC[C@H](NC(=O)c2ccc(F)cc2)CC1 [Ex. 5]
IC50 [1]: 5 nM | IC50 [2]: 4 nM | IC50 [3]: 36 nM

Compound: CCCCCC12CCC(NCC(=O)N3CCC[C@H]3C#N)(CC1)CC2 [Ex. 2DD, 1-[[(4-pentylbicyclo[2.2.2]oct-1-yl)amino]acetyl]-2-cyano-(S)-pyrrolidine]
IC50 [1]: 66 nM | IC50 [2]: 38 nM | IC50 [3]: 156 nM

Compound: N#C[C@@H]1CCCN1C(=O)CNC1CCN(c2nc(-c3ccccc3)cs2)CC1 [Ex. 2KK, 1-[[[1-(4-phenyl-2-thiazolyl)-4-piperidinyl]amino]acetyl]-2-cyano-(S)-pyrrolidine]
IC50 [1]: 38 nM | IC50 [2]: 12 nM | IC50 [3]: 28 nM | melting point: 141 to 143 °C

Compound: N#C[C@@H]1CCCN1C(=O)CN[C@H]1CC[C@H](NS(=O)(=O)c2cccs2)CC1 [Ex. 2AA]
IC50 [1]: 33 nM | IC50 [2]: 16 nM | IC50 [3]: 56 nM

Compound: COc1ccc(-c2csc(N3CCC(NCC(=O)N4CCC[C@H]4C#N)CC3)n2)cc1 [Ex. 2MM]
IC50 [1]: 71 nM | IC50 [2]: 58 nM | IC50 [3]: 22 nM

Compound: N#C[C@@H]1CCCN1C(=O)CNC1CCN(C(=O)c2ccc(Cl)cc2)CC1 [Ex. 4B]
IC50 [1]: 77 nM | IC50 [2]: 31 nM | IC50 [3]: 35 nM

Compound: CC(C)N(C(=O)N1CCC(NCC(=O)N2CCC[C@H]2C#N)CC1)C(C)C [Ex. 2JJ, 1-[[[1-[(diisopropylamino)carbonyl]-4-piperidinyl]amino]acetyl]-2-cyano-(S)-pyrrolidine]
IC50 [1]: 45 nM | IC50 [2]: 5 nM | IC50 [3]: 94 nM

The remaining lines, values ahead:

IC50 [1]: 421 nM | IC50 [2]: 49 nM | IC50 [3]: 41 nM
Compound: CC(C)N(C(=O)NCC(C)(C)NCC(=O)N1CCC[C@H]1C#N)C(C)C [Ex. 2J, 1-[[[2-[[(diisopropylamino)carbonyl]amino]-1,1-dimethylethyl]amino]acetyl]-2-cyano-(S)-pyrrolidine]

IC50 [1]: 8 nM | IC50 [2]: 9 nM | IC50 [3]: 8 nM
Compound: N#C[C@@H]1CCCN1C(=O)CN[C@H]1CC[C@H](Nc2nccc(C(F)(F)F)n2)CC1 [Ex. 2O, 1-[[[4-[[(4-trifluoromethyl)-2-pyrimidinyl]amino]cyclohexyl]amino]acetyl]-2-cyano-(S)-pyrrolidine]

IC50 [1]: 305 nM | IC50 [2]: 38 nM | IC50 [3]: 56 nM
Compound: CC(C)(CNC(=O)Nc1ccc(Cl)cc1)NCC(=O)N1CCC[C@H]1C#N [Ex. 2K, 1-[[[2-[[[(4-chlorophenyl)amino]carbonyl]amino]-1,1-dimethylethyl]amino]acetyl]-2-cyano-(S)-pyrrolidine]

IC50 [1]: 27 nM | IC50 [2]: 19 nM | IC50 [3]: 27 nM | melting point: 38 to 40 °C
Compound: CC(C)(CNc1cc(C(F)(F)F)ccn1)NCC(=O)N1CCC[C@H]1C#N [Ex. 2E, 1-[[[2-[(4-trifluoromethyl-2-pyridinyl)amino]-1,1-dimethylethyl]amino]acetyl]-2-cyano-(S)-pyrrolidine]

IC50 [1]: 38 nM | IC50 [2]: 13 nM | IC50 [3]: 19 nM
Compound: CC(C)(Cc1ccc(F)cc1)NCC(=O)N1CCC[C@H]1C#N [Ex. 2BB]

IC50 [2]: 111 nM
Compound: CC(C)(CNc1ncccc1C(F)(F)F)NCC(=O)N1CCC[C@H]1C#N [Ex. 2G, 1-[[[2-[(3-trifluoromethyl-2-pyridinyl)amino]-1,1-dimethylethyl]amino]acetyl]-2-cyano-(S)-pyrrolidine]

IC50 [1]: 93 nM | IC50 [2]: 71 nM | IC50 [3]: 44 nM
Compound: CC(C)(CNc1ncccc1Cl)NCC(=O)N1CCC[C@H]1C#N [Ex. 2D, 1-[[[2-[(3-chloro-2-pyridinyl)amino]-1,1-dimethylethyl]amino]acetyl]-2-cyano-(S)-pyrrolidine]

IC50 [1]: 59 nM | IC50 [2]: 11 nM | IC50 [3]: 5 nM
Compound: CC(C)(CNc1ccc(C(F)(F)F)cn1)NCC(=O)N1CCC[C@H]1C#N [Ex. 2B, 1-[[[2-[(5-trifluoromethyl-2-pyridinyl)amino]-1,1-dimethylethyl]amino]acetyl]-2-cyano-(S)-pyrrolidine]

IC50 [1]: 46 nM | IC50 [2]: 37 nM | IC50 [3]: 45 nM
Compound: CC(C)(CNc1ncc(Cl)cc1Cl)NCC(=O)N1CCC[C@H]1C#N [Ex. 2F, 1-[[[2-[(3,5-dichloro-2-pyridinyl)amino]-1,1-dimethylethyl]amino]acetyl]-2-cyano-(S)-pyrrolidine]

IC50 [1]: 16 nM | IC50 [2]: 11 nM | IC50 [3]: 15 nM
Compound: N#C[C@@H]1CCCN1C(=O)CN[C@H]1CC[C@H](Nc2ncccc2C(F)(F)F)CC1 [Ex. 2P, 1-[[4-[[(3-trifluoromethyl-2-pyridinyl)amino]cyclohexyl]amino]acetyl]-2-cyano-(S)-pyrrolidine]

IC50 [1]: 50 nM | IC50 [2]: 25 nM | IC50 [3]: 99 nM | melting point: 40 to 42 °C
Compound: Cc1ccc(C(=O)NCC(C)(C)NCC(=O)N2CCC[C@H]2C#N)cc1 [Ex. 2C, 1-[[[2-[(4-methylbenzoyl)amino]-1,1-dimethylethyl]amino]acetyl]-2-cyano-(S)pyrrolidine]

IC50 [1]: 122 nM | IC50 [2]: 88 nM | IC50 [3]: 66 nM
Compound: N#C[C@@H]1CCCN1C(=O)CN[C@H]1CC[C@H](NS(=O)(=O)c2ccc(C(F)(F)F)cc2)CC1 [Ex. 2Z, 1-[[[4-[[[(4-trifluoromethyl)phenyl]sulfonyl]amino]cyclohexyl]amino]acetyl]-2-cyano-(S)-pyrrolidine]

IC50 [1]: 73 nM | IC50 [2]: 31 nM | IC50 [3]: 80 nM
Compound: CC(C)(CNC(=O)c1ccc(Cl)cc1)NCC(=O)N1CCC[C@H]1C#N [Ex. 2I, 1-[[[2-[(4-chlorobenzoyl)amino]-1,1-dimethylethyl]amino]acetyl]-2-cyano-(S)-pyrrolidine]

IC50 [1]: 68 nM | IC50 [2]: 48 nM | IC50 [3]: 83 nM
Compound: N#C[C@@H]1CCCN1C(=O)CNC1CCN(S(=O)(=O)c2ccc(C(F)(F)F)cc2)CC1 [Ex. 4C]

IC50 [1]: 20 nM | IC50 [2]: 10 nM | IC50 [3]: 22 nM
Compound: N#C[C@@H]1CCCN1C(=O)CN[C@H]1CC[C@H](Oc2cccc(C(F)(F)F)c2)CC1 [Ex. 2GG, 1-[[[4-[(3-trifluoromethyl)phenoxy]cyclohexyl]amino]acetyl]-2-cyano-(S)-pyrrolidine]
